These results are taken from ChEMBL document CHEMBL5634112, “Synthesis and biological evaluation of fluoroquinolones containing a pyridoxine derivatives moiety” (Eur J Med Chem, 2023).

Assay [1] concerns Pseudomonas aeruginosa. In words: Antibacterial activity against Pseudomonas aeruginosa ATCC 27853 assessed as reduction in microbial growth incubated for 24 hrs by broth microdilution method. It counts as functional.
Assay [2] deals with Staphylococcus epidermidis. Briefly: Antibacterial activity against clinical isolate Staphylococcus epidermidis assessed as reduction in microbial growth incubated for 24 hrs by broth microdilution method. It counts as functional. On the technique in general: In broth dilution the organism is exposed to a series of concentrations in liquid medium.
Assay [3] deals with Bacillus subtilis. Briefly: Antibacterial activity against Bacillus subtilis 168 assessed as reduction in microbial growth incubated for 24 hrs by broth microdilution method. It counts as functional.
Assay [4] concerns Escherichia coli. In words: Antibacterial activity against Escherichia coli ATCC 25922 assessed as reduction in microbial growth incubated for 24 hrs by broth microdilution method. The class given is functional.
Assay [5] relates to Micrococcus luteus. Briefly: Antibacterial activity against clinical isolate Micrococcus luteus assessed as reduction in microbial growth incubated for 24 hrs by broth microdilution method. The class given is functional.
Assay [6] deals with Staphylococcus aureus. In words: Antibacterial activity against methicillin sensitive Staphylococcus aureus ATCC 29213 assessed as reduction in microbial growth incubated for 24 hrs by broth microdilution method. It counts as functional.
Assay [7] concerns Salmonella typhimurium. Briefly: Antibacterial activity against Salmonella typhimurium TA100 assessed as reduction in microbial growth incubated for 24 hrs by broth microdilution method. It counts as functional, Salmonella enterica subsp. enterica serovar Typhimurium. Conditions: Salmonella enterica.

One may read the MIC as the lowest concentration found to suppress growth.

As to `CCn1cc(C(=O)O)c(=O)c2cc(F)c(N3CCN(Cc4c(CO)nc(C)c(O)c4CO)CC3)cc21.Cl`, the MIC in assay [1] was above 64 µg/mL; in assay [2] it was 16 µg/mL; in assay [3], 8 µg/mL; in assay [4], 8 µg/mL; in assay [5] it was 16 µg/mL; in assay [6], 8 µg/mL. The MIC in assay [7] amounted to 4 µg/mL.

For the molecule `CCn1cc(C(=O)O)c(=O)c2cc(F)c(N3CCN(Cc4nc(C)c5c(c4CO)COC(C)(C)O5)C(C)C3)c(F)c21` (stereo not given), the minimal inhibitory concentration (MIC) in assay [1] was above 64 µg/mL; in assay [2] it was 16 µg/mL; in assay [3] it was 4 µg/mL; in assay [4], 8 µg/mL; in assay [5], above 64 µg/mL; in assay [6], 64 µg/mL. Also, in assay [7], the MIC was found to be 2 µg/mL.

Regarding `CCn1cc(C(=O)O)c(=O)c2cc(F)c(N3CCN(Cc4cnc(C)c5c4COC(C)O5)C(C)C3)c(F)c21` (stereo not given), the minimal inhibitory concentration (MIC) is 16 µg/mL in assay [1]; 8 µg/mL in assay [2]; 2 µg/mL in assay [3]; above 64 µg/mL in assay [4]; above 64 µg/mL in assay [5]; 2 µg/mL in assay [6]. The MIC in assay [7] turned out to be 2 µg/mL.

Take `CCCC1OCc2c(CN3CCN(c4cc5c(cc4F)c(=O)c(C(=O)O)cn5C4CC4)CC3)cnc(C)c2O1` (stereo not given): the MIC in assay [1] is above 64 µg/mL; in assay [2], 64 µg/mL; in assay [3] it was 2 µg/mL; in assay [4], above 64 µg/mL; in assay [5], 64 µg/mL; in assay [6], 64 µg/mL. In assay [7], the minimal inhibitory concentration (MIC) came to 4 µg/mL.

With `CCCCCCCCC1OCc2c(CN3CCN(c4cc5c(cc4F)c(=O)c(C(=O)O)cn5C4CC4)CC3)cnc(C)c2O1` (stereo not given), the MIC in assay [1] was above 64 µg/mL; in assay [2], 64 µg/mL; in assay [3], 2 µg/mL; in assay [4], above 64 µg/mL; in assay [5], 64 µg/mL; in assay [6], 32 µg/mL. For the same molecule, in assay [7], the MIC came out at 4 µg/mL.

Regarding `CCn1cc(C(=O)O)c(=O)c2cc(F)c(N3CCN(Cc4cnc(C)c(O)c4C)C(C)C3)c(F)c21.Cl` (stereo not given), the MIC was above 64 µg/mL in assay [1]; above 64 µg/mL in assay [2]; 1 µg/mL in assay [3]; 2 µg/mL in assay [4]; 32 µg/mL in assay [5]; 2 µg/mL in assay [6]. Moreover, the MIC in assay [7] amounted to 2 µg/mL.

Regarding `CCn1cc(C(=O)O)c(=O)c2cc(F)c(N3CCN(Cc4nc(C)c(O)c(CO)c4CO)C(C)C3)c(F)c21.Cl` (stereo not given), the MIC in assay [1] was above 64 µg/mL; in assay [2] it was 64 µg/mL; in assay [3], 2 µg/mL; in assay [4], 2 µg/mL; in assay [5], 64 µg/mL; in assay [6], 2 µg/mL. The MIC in assay [7] amounted to 2 µg/mL.

With `CCCCCCCCC1OCc2c(CN3CCN(c4c(F)cc5c(=O)c(C(=O)O)cn(CC)c5c4F)CC3C)cnc(C)c2O1` (stereo not given), the minimum inhibitory concentration (MIC) in assay [1], in assay [2], in assay [3], in assay [4], in assay [5] and in assay [6] was above 64 µg/mL in each case. Further, in assay [7], the MIC is above 64 µg/mL.

In the case of `CCCCCCCCC1OCc2c(CN3CCC[C@H]4CN(c5c(F)cc6c(=O)c(C(=O)O)cn(C7CC7)c6c5OC)C[C@H]43)cnc(C)c2O1` (stereo not given in full), the MIC is above 64 µg/mL in assay [1]; 32 µg/mL in assay [2]; 8 µg/mL in assay [3]; above 64 µg/mL in assay [4]; 16 µg/mL in assay [5]; 16 µg/mL in assay [6]. For the same molecule, the MIC in assay [7] amounted to 16 µg/mL.

For `Cc1ncc(CN2CCN(c3cc4c(cc3F)c(=O)c(C(=O)O)cn4C3CC3)CC2)c2c1OC(C)(C)OC2.Cl`, the MIC in assay [1] is above 64 µg/mL; in assay [2], 16 µg/mL; in assay [3] it was 2 µg/mL; in assay [4] it was 64 µg/mL; in assay [5] it was 32 µg/mL; in assay [6] it was 32 µg/mL. In addition, the MIC in assay [7] stood at 4 µg/mL.

For `CCn1cc(C(=O)O)c(=O)c2cc(F)c(N3CCN(Cc4cnc(C)c(O)c4CO)CC3)cc21.Cl`, the MIC is above 64 µg/mL in assay [1]; 32 µg/mL in assay [2]; 4 µg/mL in assay [3]; 64 µg/mL in assay [4]; 32 µg/mL in assay [5]; 16 µg/mL in assay [6]. Also, the MIC in assay [7] amounted to 4 µg/mL.

On to `Cc1ncc(CN2CCN(c3cc4c(cc3F)c(=O)c(C(=O)O)cn4C3CC3)CC2)c2c1OC(C)OC2.Cl` (stereo not given), for which the MIC was above 64 µg/mL in assay [1]; 8 µg/mL in assay [2]; 2 µg/mL in assay [3]; above 64 µg/mL in assay [4]; 8 µg/mL in assay [5]; 8 µg/mL in assay [6]. Besides, in assay [7], the MIC is 4 µg/mL.

As to `CCn1cc(C(=O)O)c(=O)c2cc(F)c(N3CCN(Cc4cnc(C)c5c4COC(C)O5)CC3)cc21` (stereo not given), the MIC in assay [1] was above 64 µg/mL; in assay [2], 32 µg/mL; in assay [3], 8 µg/mL; in assay [4] it was above 64 µg/mL; in assay [5], 64 µg/mL; in assay [6] it was 32 µg/mL. In addition, the MIC in assay [7] came out at 16 µg/mL.

`Cc1nc(CN2CCN(c3cc4c(cc3F)c(=O)c(C(=O)O)cn4C3CC3)CC2)c(CO)c(CO)c1O.Cl`: the MIC in assay [1] is above 64 µg/mL; in assay [2], 32 µg/mL; in assay [3], 2 µg/mL; in assay [4], 64 µg/mL; in assay [5] it was 32 µg/mL; in assay [6] it was 64 µg/mL. For the same molecule, the MIC in assay [7] was determined as 4 µg/mL.

In the case of `CCCC1OCc2c(CN3CCN(c4cc5c(cc4F)c(=O)c(C(=O)O)cn5CC)CC3)cnc(C)c2O1` (stereo not given), the MIC was above 64 µg/mL in assay [1]; 32 µg/mL in assay [2]; 2 µg/mL in assay [3]; above 64 µg/mL in assay [4]; 64 µg/mL in assay [5]; 16 µg/mL in assay [6]. Moreover, the MIC in assay [7] was determined as 2 µg/mL.

On to `CCCC1OCc2c(CN3CCN(c4c(F)cc5c(=O)c(C(=O)O)cn(CC)c5c4F)CC3C)cnc(C)c2O1` (stereo not given), for which the minimum inhibitory concentration (MIC) in assay [1] was above 64 µg/mL; in assay [2], 8 µg/mL; in assay [3], 2 µg/mL; in assay [4], above 64 µg/mL; in assay [5] it was 16 µg/mL; in assay [6], 16 µg/mL. Moreover, in assay [7], the minimum inhibitory concentration (MIC) was 2 µg/mL.

On to `CCn1cc(C(=O)O)c(=O)c2cc(F)c(N3CCN(Cc4cnc(C)c5c4COC(C)(C)O5)C(C)C3)c(F)c21.Cl` (stereo not given), for which the MIC in assay [1] was above 64 µg/mL; in assay [2], 64 µg/mL; in assay [3] it was 2 µg/mL; in assay [4] it was above 64 µg/mL; in assay [5], 8 µg/mL; in assay [6] it was 16 µg/mL. Moreover, the MIC in assay [7] turned out to be 2 µg/mL.

On to `CCn1cc(C(=O)O)c(=O)c2cc(F)c(N3CCN(Cc4cnc(C)c5c4COCO5)C(C)C3)c(F)c21.Cl` (stereo not given), for which the MIC is above 64 µg/mL in assay [1]; 16 µg/mL in assay [2]; 4 µg/mL in assay [3]; 16 µg/mL in assay [4]; 32 µg/mL in assay [5]; 8 µg/mL in assay [6]. The MIC in assay [7] is 4 µg/mL.

For `CCn1cc(C(=O)O)c(=O)c2cc(F)c(N3CCN(Cc4nc(C)c(O)c(CO)c4CO)CC3)cc21.Cl`, the MIC is above 64 µg/mL in assay [1]; 32 µg/mL in assay [2]; 4 µg/mL in assay [3]; above 64 µg/mL in assay [4]; 8 µg/mL in assay [5]; 8 µg/mL in assay [6]. Also, the minimal inhibitory concentration (MIC) in assay [7] was found to be 16 µg/mL.

On to `CCCCCCCCC1OCc2c(CN3CCN(c4cc5c(cc4F)c(=O)c(C(=O)O)cn5CC)CC3)cnc(C)c2O1` (stereo not given), for which the MIC is above 64 µg/mL in assay [1]; above 64 µg/mL in assay [2]; 64 µg/mL in assay [3]; above 64 µg/mL in assay [4]; above 64 µg/mL in assay [5]; above 64 µg/mL in assay [6]. Further, the MIC in assay [7] was above 64 µg/mL.
